Tests used:
adenosine A2B receptor = adenosine A2B receptor (Homo sapiens (Human), UniProt P29275); assay: Adenosine receptor activity assay (Table 1), A2B activity; type: biochemical; conditions: for Ratio: A2A activity to A2B activity (A2A/A2B); for IC50: read-out: Ave A2B cAMP IC50
adenosine A2A receptor = adenosine A2A receptor (Homo sapiens (Human), UniProt P29274); assay: Adenosine receptor activity assay (Table 1), A2A activity; type: biochemical; conditions: read-out: Ave A2A cAMP IC50
Sequence of adenosine A2A receptor (P29274 whole entry): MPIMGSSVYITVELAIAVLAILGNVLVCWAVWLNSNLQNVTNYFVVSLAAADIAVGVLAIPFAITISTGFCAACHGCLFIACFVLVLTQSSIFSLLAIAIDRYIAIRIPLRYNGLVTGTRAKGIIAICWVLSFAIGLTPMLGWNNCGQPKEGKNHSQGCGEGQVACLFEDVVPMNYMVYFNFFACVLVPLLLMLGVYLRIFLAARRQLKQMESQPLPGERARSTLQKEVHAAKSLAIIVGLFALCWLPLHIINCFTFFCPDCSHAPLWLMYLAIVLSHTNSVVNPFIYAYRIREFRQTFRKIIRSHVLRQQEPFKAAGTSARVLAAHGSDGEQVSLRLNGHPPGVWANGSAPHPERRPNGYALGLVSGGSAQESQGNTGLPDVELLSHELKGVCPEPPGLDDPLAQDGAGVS

Sequence of adenosine A2B receptor (P29275 whole entry): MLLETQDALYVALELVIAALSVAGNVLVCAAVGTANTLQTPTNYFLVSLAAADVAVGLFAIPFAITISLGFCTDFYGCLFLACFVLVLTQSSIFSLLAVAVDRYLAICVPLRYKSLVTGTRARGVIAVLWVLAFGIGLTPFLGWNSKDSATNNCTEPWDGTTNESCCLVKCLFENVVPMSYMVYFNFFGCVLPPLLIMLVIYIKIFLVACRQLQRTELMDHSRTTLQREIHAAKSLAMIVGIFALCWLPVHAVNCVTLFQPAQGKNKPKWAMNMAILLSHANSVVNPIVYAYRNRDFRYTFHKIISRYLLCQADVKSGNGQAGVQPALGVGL

Compound | Ratio (adenosine A2B receptor) | IC50 (adenosine A2B receptor) | IC50 (adenosine A2A receptor)
O=C(NCc1cncnc1)c1nc(NCc2cncnc2)nc2ccsc12 [Example Z4, N-(Pyrimidin-5-ylmethyl)-2-((pyrimidin-5-ylmethyl)amino)thieno[3,2-d]pyrimidine-4-carboxamide] | 0.95 | > 0.5 µM | > 0.5 µM
C[C@H](Nc1nc(C(=O)NCc2cncnc2)c2sccc2n1)c1cccnc1 [Example Z6, (S)-2-((1-(Pyridin-3-yl)ethyl)amino)-N-(pyrimidin-5-ylmethyl)thieno[3,2-d]pyrimidine-4-carboxamide] | 0.49 | > 0.5 µM | > 0.5 µM
CC1(C)CCN(C(=O)c2nc(NCc3cncnc3)nc3ccsc23)C1 [Example Z7, (3,3-Dimethylpyrrolidin-1-yl)(2-((pyrimidin-5-ylmethyl)amino)thieno[3,2-d]pyrimidin-4-yl)methanone] | 0.57 | > 0.5 µM | > 0.5 µM
C[C@H](Nc1nc(C(=O)N2CCOCC2)c2sccc2n1)c1cccnc1 [Example Z11, (S)-Morpholino(2-((1-(pyridin-3-yl)ethyl)amino)thieno[3,2-d]pyrimidin-4-yl)methanone] | 4.88 | > 0.5 µM | > 0.5 µM
COc1ccc(CNC(=O)c2nc(NCc3ccc(OC)nc3)nc3ccsc23)cn1 [Example Z12, N-((6-Methoxypyridin-3-yl)methyl)-2-(((6-methoxypyridin-3-yl)methyl)amino)thieno[3,2-d]pyrimidine-4-carboxamide] | 0.15 | > 0.5 µM | 0.05 to 0.1 µM
CN(C(=O)c1nc(NCc2cncc(F)c2)nc2ccsc12)C1CCC(C)(C)C1 (stereo not shown) [Example Z22, N-(3,3-Dimethylcyclopentyl)-2-(((5-fluoropyridin-3-yl)methyl)amino)-N-methylthieno[3,2-d]pyrimidine-4-carboxamide] | 7.49 | > 0.5 µM | > 0.5 µM
CCC(NC(=O)c1nc(NC(CC)c2cccnc2)nc2ccsc12)c1cccnc1 (stereo not shown) [Example Z23, N-(1-(Pyridin-3-yl)propyl)-2-((1-(pyridin-3-yl)propyl)amino)thieno[3,2-d]pyrimidine-4-carboxamide] | 5.63 | > 0.5 µM | > 0.5 µM
COc1ccc(CNC(=O)c2nc(N[C@@H](C)c3cccnc3)nc3ccsc23)cc1OC [Example Z33, (S)—N-(3,4-Dimethoxybenzyl)-2-((1-(pyridin-3-yl)ethyl)amino)thieno[3,2-d]pyrimidine-4-carboxamide] | 4.57 | > 0.5 µM | > 0.5 µM
O=C(NCc1cccnn1)c1nc(NCc2cccnn2)nc2ccsc12 [Example Z35, N-(Pyridazin-3-ylmethyl)-2-((pyridazin-3-ylmethyl)amino)thieno[3,2-d]pyrimidine-4-carboxamide] | 1.00 | > 0.5 µM | > 0.5 µM
C[C@H](Nc1nc(C(=O)N2CCC[C@@H]2C)c2sccc2n1)c1cccnc1 [Example Z36, ((S)-2-Methylpyrrolidin-1-yl)(2-(((S)-1-(pyridin-3-yl)ethyl)amino)thieno[3,2-d]pyrimidin-4-yl)methanone] | 1.55 | 0.1 to 0.5 µM | 0.1 to 0.5 µM
C[C@H](Nc1nc(C(=O)N2CCC[C@H]2C)c2sccc2n1)c1cccnc1 [Example Z37, ((R)-2-Methylpyrrolidin-1-yl)(2-(((S)-1-(pyridin-3-yl)ethyl)amino)thieno[3,2-d]pyrimidin-4-yl)methanone] | 64.10 | 0.1 to 0.5 µM | > 0.5 µM
CCC(Nc1nc(C(=O)NCc2ccc(OC)nc2)c2sccc2n1)c1cccnc1 (stereo not shown) [Example Z83, N-((6-Methoxypyridin-3-yl)methyl)-2-((1-(pyridin-3-yl)propyl)amino)thieno[3,2-d]pyrimidine-4-carboxamide] | – | – | 0.1 to 0.5 µM
C[C@H](Nc1nc(C(=O)N2CC[C@@H](S(C)(=O)=O)C2)c2sccc2n1)c1ccccn1 [Example Z256] | – | 0.1 to 0.5 µM | –
C[C@H](Nc1nc(C(=O)N[C@H]2CC[C@@H](O)C2)c2sccc2n1)c1ccccn1 [Example Z332, N-((1S,3R)-3-Hydroxycyclopentyl)-2-(((S)-1-(pyridin-2-yl)ethyl)amino)thieno[3,2-d]pyrimidine-4-carboxamide] | – | – | 0.1 to 0.5 µM
C[C@H](Nc1nc(C(=O)NCCc2ccccc2O)c2sccc2n1)c1cncc(F)c1 [Example Z448, (S)-2-((1-(5-fluoropyridin-3-yl)ethyl)amino)-N-(2-hydroxyphen-ethyl)thieno[3,2-d]pyrimidine-4-carboxamide] | – | – | 0.1 to 0.5 µM
CNCC1CN(C(=O)c2nc(N[C@@H](C)c3cncc(F)c3)nc3ccsc23)C1 [Example Z544, (S)-(2-((1-(5-Fluoropyridin-3-yl)ethyl)amino)thieno[3,2-d]pyrimidin-4-yl)(3-((methylamino)methyl)azetidin-1-yl)methanone] | – | 0.1 to 0.5 µM | –

Further lines, results first:

Ratio (adenosine A2B receptor) | IC50 (adenosine A2B receptor) | IC50 (adenosine A2A receptor) | Compound
8.45 | 0.01 to 0.05 µM | 0.1 to 0.5 µM | 2-(((5-Fluoropyridin-3-yl)methyl)amino)-N-((tetrahydro-2H-pyran-4-yl)methyl)thieno[3,2-d]pyrimidine-4-carboxamide [Example Z219]
0.55 | 0.1 to 0.5 µM | 0.05 to 0.1 µM | C[C@H](NC(=O)c1nc(N[C@@H](C)c2cccnc2)nc2ccsc12)c1cccnc1 [Example Z1, N—((S)-1-(Pyridin-3-yl)ethyl)-2-(((S)-1-(pyridin-3-yl)ethyl)amino)thieno[3,2-d]pyrimidine-4-carboxamide]
1.26 | 0.1 to 0.5 µM | 0.1 to 0.5 µM | C[C@H](Nc1nc(C(=O)N2CCC(C)(C)C2)c2sccc2n1)c1cccnc1 [Example Z3, (S)-(3,3-Dimethylpyrrolidin-1-yl)(2-((1-(pyridin-3-yl)ethyl)amino)thieno[3,2-d]pyrimidin-4-yl)methanone]
18.06 | 0.1 to 0.5 µM | > 0.5 µM | O=C(c1nc(NCc2cncnc2)nc2ccsc12)N1CCCC1 [Example Z5, (2-((Pyrimidin-5-ylmethyl)amino)thieno[3,2-d]pyrimidin-4-yl)(pyrrolidin-1-yl)methanone]
1.35 | 0.1 to 0.5 µM | 0.1 to 0.5 µM | C[C@H](Nc1nc(C(=O)N2CC3(COC3)C2)c2sccc2n1)c1cccnc1 [Example Z14, (S)-(2-((1-(Pyridin-3-yl)ethyl)amino)thieno[3,2-d]pyrimidin-4-yl)(2-oxa-6-azaspiro[3.3]heptan-6-yl)methanone]
9.43 | 0.1 to 0.5 µM | > 0.5 µM | O=C(NCc1cncc(F)c1)c1nc(NCc2cncc(F)c2)nc2ccsc12 [Example Z15, N-((5-Fluoropyridin-3-yl)methyl)-2-(((5-fluoropyridin-3-yl)methyl)amino)thieno[3,2-d]pyrimidine-4-carboxamide]
0.19 | 0.1 to 0.5 µM | 0.05 to 0.1 µM | COc1ccc(CNc2nc(C(=O)N3CCCC3)c3sccc3n2)cn1 [Example Z17, (2-(((6-Methoxypyridin-3-yl)methyl)amino)thieno[3,2-d]pyrimidin-4-yl)(pyrrolidin-1-yl)methanone]
0.62 | 0.1 to 0.5 µM | 0.1 to 0.5 µM | C[C@H](Nc1nc(C(=O)NCc2cncc(F)c2)c2sccc2n1)c1cccnc1 [Example Z20, (S)—N-((5-Fluoropyridin-3-yl)methyl)-2-((1-(pyridin-3-yl)ethyl)amino)thieno[3,2-d]pyrimidine-4-carboxamide]
2.92 | 0.1 to 0.5 µM | > 0.5 µM | CCC(NC(=O)c1nc(N[C@@H](C)c2cccnc2)nc2ccsc12)c1cccnc1 (stereo partly drawn) [Example Z24, 2-(((S)-1-(Pyridin-3-yl)ethyl)amino)-N-(1-(pyridin-3-yl)propyl)thieno[3,2-d]pyrimidine-4-carboxamide]
– | 0.01 to 0.05 µM | 0.1 to 0.5 µM | CCC(Nc1nc(C(=O)N2CCCC2)c2sccc2n1)c1cccnc1 (stereo not shown) [Example Z25, (2-((1-(Pyridin-3-yl)propyl)amino)thieno[3,2-d]pyrimidin-4-yl)(pyrrolidin-1-yl)methanone]
2.58 | 0.01 to 0.05 µM | 0.05 to 0.1 µM | CCC(Nc1nc(C(=O)N2CC[C@@H](OC)C2)c2sccc2n1)c1cccnc1 (stereo partly drawn) [Example Z26, ((R)-3-Methoxypyrrolidin-1-yl)(2-((1-(pyridin-3-yl)propyl)amino)thieno[3,2-d]pyrimidin-4-yl)methanone]
1.97 | 0.05 to 0.1 µM | 0.1 to 0.5 µM | C[C@H](Nc1nc(C(=O)NCC2CCN(Cc3ccccc3)CC2)c2sccc2n1)c1cccnc1 [Example Z27, (S)—N-((1-benzylpiperidin-4-yl)methyl)-2-((1-(pyridin-3-yl)ethyl)amino)thieno[3,2-d]pyrimidine-4-carboxamide]
8.34 | 0.1 to 0.5 µM | > 0.5 µM | C[C@H](Nc1nc(C(=O)N[C@H](C)c2cccnc2)c2sccc2n1)c1cccnc1 [Example Z30, N—((R)-1-(Pyridin-3-yl)ethyl)-2-(((S)-1-(pyridin-3-yl)ethyl)amino)thieno[3,2-d]pyrimidine-4-carboxamide]
40.00 | 0.1 to 0.5 µM | > 0.5 µM | C[C@H](Nc1nc(C(=O)N2CCCCC2)c2sccc2n1)c1cccnc1 [Example Z31, (S)-Piperidin-1-yl(2-((1-(pyridin-3-yl)ethyl)amino)thieno[3,2-d]pyrimidin-4-yl)methanone]
3.23 | 0.05 to 0.1 µM | – | COc1cncc(CNC(=O)c2nc(N[C@@H](C)c3ccccn3)nc3ccsc23)c1 [Example Z110, (S)—N-((5-Methoxypyridin-3-yl)methyl)-2-((1-(pyridin-2-yl)ethyl)amino)thieno[3,2-d]pyrimidine-4-carboxamide]
– | 0.01 to 0.05 µM | – | COCC(Nc1nc(C(=O)N2CCC2)c2sccc2n1)c1cccnc1 (stereo not shown) [Example Z126, Azetidin-1-yl(2-((2-methoxy-1-(pyridin-3-yl)ethyl)amino)thieno[3,2-d]pyrimidin-4-yl)methanone]

From patent US11254686B1 (Corvus Pharmaceuticals, Inc., priority 2017, dated 2022)
